In ChEMBL document CHEMBL4725338, “Discovery of novel histone lysine methyltransferase G9a/GLP (EHMT2/1) inhibitors: Design, synthesis, and structure-activity relationships of 2,4-diamino-6-methylpyrimidines” (Bioorg Med Chem Lett, 2020):
Values after ≈ are worked out from the molar mass of the structure shown. Active and inactive are the calls of the source. The calls are words filed in the database; no cut-off is given here.

Columns and labels:
[1] = target: T1, Histone-lysine N-methyltransferase EHMT2 (Homo sapiens, UniProt Q96KQ7); assay: Inhibition G9a (unknown origin)
T1 sequence (Q96KQ7 whole entry): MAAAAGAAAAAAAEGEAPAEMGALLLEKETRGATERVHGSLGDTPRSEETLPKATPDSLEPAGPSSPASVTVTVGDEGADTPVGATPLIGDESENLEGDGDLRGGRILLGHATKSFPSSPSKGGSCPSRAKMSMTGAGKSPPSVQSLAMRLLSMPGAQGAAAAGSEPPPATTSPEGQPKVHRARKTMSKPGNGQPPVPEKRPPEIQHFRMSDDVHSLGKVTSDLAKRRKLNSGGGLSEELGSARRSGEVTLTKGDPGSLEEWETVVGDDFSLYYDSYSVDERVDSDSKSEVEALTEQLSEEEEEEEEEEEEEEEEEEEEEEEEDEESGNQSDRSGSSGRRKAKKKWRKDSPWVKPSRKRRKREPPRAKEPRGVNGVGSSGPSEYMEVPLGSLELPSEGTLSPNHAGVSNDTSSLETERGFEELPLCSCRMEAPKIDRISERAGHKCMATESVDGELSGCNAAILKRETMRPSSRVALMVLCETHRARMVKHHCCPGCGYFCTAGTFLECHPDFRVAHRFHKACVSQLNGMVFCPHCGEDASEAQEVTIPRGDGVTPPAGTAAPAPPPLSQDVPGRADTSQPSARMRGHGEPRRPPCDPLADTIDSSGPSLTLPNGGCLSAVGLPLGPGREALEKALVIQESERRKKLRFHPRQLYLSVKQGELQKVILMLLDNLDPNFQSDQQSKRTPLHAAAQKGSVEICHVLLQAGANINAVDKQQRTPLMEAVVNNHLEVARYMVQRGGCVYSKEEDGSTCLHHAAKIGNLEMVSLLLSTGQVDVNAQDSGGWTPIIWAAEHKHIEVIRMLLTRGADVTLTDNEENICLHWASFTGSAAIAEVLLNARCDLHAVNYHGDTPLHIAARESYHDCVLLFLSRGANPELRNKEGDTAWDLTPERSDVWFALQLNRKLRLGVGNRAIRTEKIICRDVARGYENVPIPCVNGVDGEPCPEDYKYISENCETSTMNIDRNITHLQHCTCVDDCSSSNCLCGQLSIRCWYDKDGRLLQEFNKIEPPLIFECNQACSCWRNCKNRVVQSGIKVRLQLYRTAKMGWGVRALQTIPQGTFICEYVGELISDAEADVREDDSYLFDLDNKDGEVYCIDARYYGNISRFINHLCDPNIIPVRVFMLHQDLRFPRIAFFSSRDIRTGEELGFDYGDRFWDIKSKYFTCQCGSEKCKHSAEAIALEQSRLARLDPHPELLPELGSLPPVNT

[2] = tested on: CD34-positive (myeloid/lymphoid) cell; assay: Induction of fetal globin in human CD34+ cells assessed as switching of mRAN expression from adult beta-globin to fetal type gamma globin at 0.3 to 1 uM by qRT-PCR analysis; type: functional, cell-based
[3] = Lipophilicity, log D of compound; type: physicochemical; conditions: octanol/water
[4] = Aqueous solubility of the compound in pH 6.8 JP2 fluid; type: physicochemical
[5] = Metabolic stability in mouse liver microsomes assessed as compound remaining at 0.5 mg/mL incubated for 0.5 hrs; type: ADME, Microsome; conditions: read-out: Stabilty
[6] = Metabolic stability in monkey liver microsomes assessed as compound remaining at 0.5 mg/mL incubated for 0.5 hrs; type: ADME, Macaca mulatta, Microsome; conditions: rhesus monkey, read-out: Stabilty
[7] = Metabolic stability in human liver microsomes assessed as compound remaining at 0.5 mg/mL incubated for 0.5 hrs; type: ADME, Microsome; conditions: read-out: Stabilty
CYP1A2 = target: T2, CYP1A2 (Homo sapiens, UniProt P05177); assay: Inhibition of CYP1A2 (unknown origin) at 10 uM relative to control; type: ADME
T2 sequence (P05177 whole entry): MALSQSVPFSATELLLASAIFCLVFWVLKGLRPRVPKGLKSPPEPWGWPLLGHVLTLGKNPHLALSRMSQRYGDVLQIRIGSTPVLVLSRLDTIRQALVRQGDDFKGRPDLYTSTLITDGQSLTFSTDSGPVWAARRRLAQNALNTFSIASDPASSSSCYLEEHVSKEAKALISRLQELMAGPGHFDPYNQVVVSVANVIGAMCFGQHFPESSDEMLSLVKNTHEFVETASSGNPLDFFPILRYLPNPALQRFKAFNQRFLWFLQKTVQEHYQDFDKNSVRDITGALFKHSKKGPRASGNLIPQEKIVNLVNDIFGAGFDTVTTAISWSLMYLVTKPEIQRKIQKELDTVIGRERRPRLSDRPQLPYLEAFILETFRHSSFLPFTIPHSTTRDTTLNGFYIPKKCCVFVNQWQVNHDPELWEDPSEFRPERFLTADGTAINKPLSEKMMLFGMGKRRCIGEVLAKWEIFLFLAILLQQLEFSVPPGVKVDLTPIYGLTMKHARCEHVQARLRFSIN

CYP2C9 = CYP2C9 (Homo sapiens, UniProt P11712); assay: Inhibition of CYP2C9 (unknown origin) at 10 uM relative to control; type: ADME
Chain of CYP2C9 (P11712 whole entry): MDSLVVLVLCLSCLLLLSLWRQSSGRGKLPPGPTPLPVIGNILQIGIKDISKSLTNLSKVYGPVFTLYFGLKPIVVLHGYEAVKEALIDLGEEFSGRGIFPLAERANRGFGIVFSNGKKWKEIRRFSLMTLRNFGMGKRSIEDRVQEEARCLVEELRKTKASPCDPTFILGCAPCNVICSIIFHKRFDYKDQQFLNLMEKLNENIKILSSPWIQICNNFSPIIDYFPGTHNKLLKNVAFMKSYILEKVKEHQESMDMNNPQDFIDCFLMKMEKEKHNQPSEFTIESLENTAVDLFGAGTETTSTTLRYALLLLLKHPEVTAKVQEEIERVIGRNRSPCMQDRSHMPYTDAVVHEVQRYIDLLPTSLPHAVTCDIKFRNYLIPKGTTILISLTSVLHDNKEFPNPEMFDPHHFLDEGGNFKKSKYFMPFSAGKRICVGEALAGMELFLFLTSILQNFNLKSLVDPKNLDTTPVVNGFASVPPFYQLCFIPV

CYP2C19 = CYP2C19 (Homo sapiens, UniProt P33261); assay: Inhibition of CYP2C19 (unknown origin) at 10 uM relative to control; type: ADME
Chain of CYP2C19 (P33261 whole entry): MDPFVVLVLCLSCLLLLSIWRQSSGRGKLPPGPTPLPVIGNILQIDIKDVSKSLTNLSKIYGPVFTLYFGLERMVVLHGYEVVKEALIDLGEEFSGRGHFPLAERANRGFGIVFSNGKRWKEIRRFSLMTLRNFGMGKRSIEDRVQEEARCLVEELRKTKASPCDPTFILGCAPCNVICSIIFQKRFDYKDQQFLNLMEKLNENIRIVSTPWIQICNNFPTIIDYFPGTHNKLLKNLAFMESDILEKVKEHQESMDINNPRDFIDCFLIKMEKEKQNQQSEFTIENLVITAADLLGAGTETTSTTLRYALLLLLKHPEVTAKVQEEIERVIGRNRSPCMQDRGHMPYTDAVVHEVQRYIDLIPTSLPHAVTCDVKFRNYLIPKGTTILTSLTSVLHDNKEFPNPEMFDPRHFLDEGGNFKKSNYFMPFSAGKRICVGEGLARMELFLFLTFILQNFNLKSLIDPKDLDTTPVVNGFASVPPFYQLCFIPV

CYP2D6 = CYP2D6 (Homo sapiens, UniProt P10635); assay: Inhibition of CYP2D6 (unknown origin) at 10 uM relative to control; type: ADME
Chain of CYP2D6 (P10635 whole entry): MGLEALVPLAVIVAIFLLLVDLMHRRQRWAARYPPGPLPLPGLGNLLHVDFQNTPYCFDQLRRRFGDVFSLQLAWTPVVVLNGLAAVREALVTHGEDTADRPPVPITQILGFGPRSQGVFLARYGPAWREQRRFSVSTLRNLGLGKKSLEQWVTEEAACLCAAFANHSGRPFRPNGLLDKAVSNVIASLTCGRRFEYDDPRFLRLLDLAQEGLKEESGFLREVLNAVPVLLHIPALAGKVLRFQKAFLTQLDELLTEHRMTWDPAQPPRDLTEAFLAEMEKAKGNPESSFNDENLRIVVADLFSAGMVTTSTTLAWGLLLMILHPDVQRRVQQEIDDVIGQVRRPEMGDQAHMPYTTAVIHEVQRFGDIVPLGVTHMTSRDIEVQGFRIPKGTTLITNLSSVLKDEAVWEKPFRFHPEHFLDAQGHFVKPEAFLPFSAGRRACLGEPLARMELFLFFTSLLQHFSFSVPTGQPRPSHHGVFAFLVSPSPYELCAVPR

CYP3A4 [8] = target: T3, CYP3A4 (Homo sapiens, UniProt P08684); assay: Inhibition of CYP3A4 (unknown origin) at 10 uM relative to control; type: ADME
T3 sequence (P08684 whole entry): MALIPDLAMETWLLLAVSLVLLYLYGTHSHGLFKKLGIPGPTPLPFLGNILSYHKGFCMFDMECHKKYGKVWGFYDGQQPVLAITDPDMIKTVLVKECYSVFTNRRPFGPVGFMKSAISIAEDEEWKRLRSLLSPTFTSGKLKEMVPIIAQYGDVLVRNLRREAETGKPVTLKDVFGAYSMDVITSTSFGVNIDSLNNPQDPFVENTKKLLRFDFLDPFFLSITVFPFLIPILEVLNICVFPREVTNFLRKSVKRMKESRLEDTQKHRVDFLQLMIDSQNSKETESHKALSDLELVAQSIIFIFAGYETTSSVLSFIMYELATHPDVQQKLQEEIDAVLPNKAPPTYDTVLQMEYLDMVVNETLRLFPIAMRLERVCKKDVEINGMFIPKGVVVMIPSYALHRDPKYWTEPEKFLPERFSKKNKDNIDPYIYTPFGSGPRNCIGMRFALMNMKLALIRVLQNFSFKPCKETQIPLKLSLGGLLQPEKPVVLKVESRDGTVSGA

[9] = Cmax in mouse at 10 mg/kg, po; type: ADME, organism-based; parameters: route oral, dose 10 mg/kg; conditions: in vivo
hERG (KCNH2) = hERG (KCNH2) (Homo sapiens, UniProt Q12809); assay: Inhibition of human ERG at 10 uM relative to control
Chain of hERG (KCNH2) (Q12809 whole entry): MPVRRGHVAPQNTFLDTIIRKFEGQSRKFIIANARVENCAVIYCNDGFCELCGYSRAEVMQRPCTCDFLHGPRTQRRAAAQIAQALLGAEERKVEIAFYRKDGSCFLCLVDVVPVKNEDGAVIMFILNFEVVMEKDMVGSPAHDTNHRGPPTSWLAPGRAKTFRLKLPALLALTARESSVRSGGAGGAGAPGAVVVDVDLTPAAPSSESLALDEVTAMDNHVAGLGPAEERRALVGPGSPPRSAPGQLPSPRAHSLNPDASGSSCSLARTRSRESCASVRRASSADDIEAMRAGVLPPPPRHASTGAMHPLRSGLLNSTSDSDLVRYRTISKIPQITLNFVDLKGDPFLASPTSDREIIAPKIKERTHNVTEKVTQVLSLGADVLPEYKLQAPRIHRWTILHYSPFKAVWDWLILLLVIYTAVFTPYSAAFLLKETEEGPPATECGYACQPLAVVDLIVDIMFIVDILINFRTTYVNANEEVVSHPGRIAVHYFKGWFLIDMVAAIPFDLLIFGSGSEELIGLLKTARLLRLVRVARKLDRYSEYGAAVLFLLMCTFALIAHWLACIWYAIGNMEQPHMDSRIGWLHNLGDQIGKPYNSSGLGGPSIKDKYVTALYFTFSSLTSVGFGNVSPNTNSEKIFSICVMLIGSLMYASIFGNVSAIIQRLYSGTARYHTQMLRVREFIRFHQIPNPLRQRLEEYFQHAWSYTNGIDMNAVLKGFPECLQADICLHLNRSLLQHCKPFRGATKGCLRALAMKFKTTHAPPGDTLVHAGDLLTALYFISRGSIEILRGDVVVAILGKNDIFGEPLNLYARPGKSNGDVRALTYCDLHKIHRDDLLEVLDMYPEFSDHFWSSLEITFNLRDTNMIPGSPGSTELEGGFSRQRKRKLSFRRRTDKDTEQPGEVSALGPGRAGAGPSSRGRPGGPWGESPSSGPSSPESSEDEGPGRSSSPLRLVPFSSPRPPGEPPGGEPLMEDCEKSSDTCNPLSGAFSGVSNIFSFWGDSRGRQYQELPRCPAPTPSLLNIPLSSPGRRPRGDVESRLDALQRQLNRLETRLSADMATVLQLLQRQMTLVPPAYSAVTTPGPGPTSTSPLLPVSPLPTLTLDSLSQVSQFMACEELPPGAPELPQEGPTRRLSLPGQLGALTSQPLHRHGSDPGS

CYP3A4 [10] = target: T3, CYP3A4; assay: Mechanism based inhibition of CYP3A4 in human liver microsome assessed as remaining percentage at 100 uM in presence of substrate ACN preincubated 30 mins followed by substrate addition relative to control; type: ADME; conditions: liver microsomes, probe ACN (so in the source), read-out: Activity
[11] = Tmax in mouse at 10 mg/kg, po; type: ADME, organism-based; conditions: in vivo
[12] = Initial plasma concentration in mouse at 1 mg/kg, iv; type: ADME, organism-based
[13] = AUC (0 to infinity) in mouse at 1 mg/kg, iv; type: ADME, organism-based; parameters: time infinity, route intravenous, dose 1 mg/kg; conditions: in vivo
[14] = Half-life in mouse at 1 mg/kg, iv; type: ADME, organism-based; conditions: in vivo
[15] = Volume of distribution at steady state in mouse at 1 mg/kg, iv; type: ADME, organism-based; conditions: in vivo, read-out: Vdss
[16] = Intrinsic clearance in mouse at 1 mg/kg, iv; type: ADME, organism-based; conditions: in vivo

SMILES	IC50 [1] [nM]	Activity [2]	logD [3]	solubility [4] [µg/mL]	remaining at 0.5 h [5] [%]	remaining at 0.5 h [6] [%]	remaining at 0.5 h [7] [%]	inhibition at 10 µM (CYP1A2) [%]	inhibition at 10 µM (CYP2C9) [%]	inhibition at 10 µM (CYP2C19) [%]	inhibition at 10 µM (CYP2D6) [%]	inhibition at 10 µM (CYP3A4 [8]) [%]	Cmax [9] [nM]	inhibition at 10 µM (hERG (KCNH2)) [%]	activity at 30 min, 100 µM (CYP3A4 [10]) [%]	Tmax [11] [h]	C0 [12] [nM]	AUC(0-inf) [13] [µM·h]	half-life [14] [h]	Vd [15] [L/kg]	further results
CNc1cc(C)nc(Nc2ccc(OC)c(OCCCN3CCCC3)c2)n1	16.9	Active	0.8	590 (≈ 1590 µM)	48	8	99	5	0	3	8	8	220	42	93.6	5.5	260	1.71	4	8.3	CL [16]: 27.4 mL/min/kg
CNc1cc(C)nc(Nc2ccc(OC)c(C3=CCNCCC3)c2)n1	4.31	Active	0.5	640 (≈ 1890 µM)	34	24	96	0	0	9	3	0	450	1	80.5	2	400	0.79	7	24.6	CL [16]: 62.9 mL/min/kg
